Laboratory results as given in the OligoGym collection.
“And” between values parts separate entries of the source, which are not always exact repeats. Equal values may be shown once. After the bases stand the sugars from the 5' end (letter, count) and the backbone: PS all phosphorothioate, else s phosphorothioate and o phosphodiester by linkage. Methylation of C is not given here. e = 2'-O-(2-methoxyethyl) (MOE); d = 2'-deoxy (DNA)

Molecular target: DGAT2
Conditions: ASO

Sequence | target mRNA inhibition (HepG2, 2.5 µM) | target mRNA inhibition (HepG2, 10 µM) | target mRNA inhibition (HepG2, 0.12 µM) | target mRNA inhibition (HepG2, 20 µM)
GGGACTCAGTGTCCTCCTTA (sugars e5 d10 e5, PS) | 69% | 78% | – | –
ACAGCAGCAGTCTAATCCAT (sugars e5 d10 e5, PS) | 57% | 87% | – | –
CAGGGTCTGCCACTCTCTAC (sugars e5 d10 e5, PS) | 56% | 85% | – | –
TTTCCTTTGAAATCCAATGC (sugars e5 d10 e5, PS) | 69% | 90% | – | –
GGCATGCTTCCTCCCAC (sugars e3 d10 e4, PS) | 56% | 56% | – | –
TCAGCAGGTTGTGTGTCTTC (sugars e3 d14 e3, PS) | – | – | 54% | –
ACCCACTGGAGCACTGAGAT (sugars e5 d10 e5, PS) | – | – | 72% | –
AAAGATATAGTTCCTGGTGG (sugars e5 d10 e5, PS) | – | – | 54% | –
TACCTGCTATGCTGAGAGCA (sugars e5 d10 e5, PS) | 65% | 80% | – | –
TTGCTTAAACAGATAAGCAC (sugars e5 d10 e5, PS) | – | – | 17% | –
ACAATGGGAATGGTATCGCA (sugars e5 d10 e5, PS) | 59% | 92% | – | –
AGGTAGAGTTCTATTGCTTC (sugars e5 d10 e5, PS) | 81% | 88% and 92% | – | –
AGAGGCCCTGGACACTGGCC (sugars e5 d10 e5, PS) | – | – | 32% | –
TCCTGGTCCCAGTACTTTCT (sugars e5 d10 e5, PS) | 71% and 73% | 91% and 92% | – | –
AGAGAGACAATGAGTAAGGG (sugars e5 d10 e5, PS) | 68% | 79% | – | –
GTCCTCCTTAGCTTTAATCC (sugars e5 d10 e5, PS) | 62% | 85% | – | –
GGTGCTCTCATTTCTTATCT (sugars e5 d10 e5, PS) | 56% and 59% | 82% and 92% | – | –
TTTGGATAGTCGATTTACCA (sugars e5 d10 e5, PS) | – | – | 41% | –
CTCAGAGACTCAGCCGCACC (sugars e3 d14 e3, PS) | – | – | 70% | –
GATGCTGGATCCAGTGCCTA (sugars e5 d10 e5, PS) | – | – | 53% | –
ATTTCTTTTAAATAACCCAC (sugars e5 d10 e5, PS) | – | – | 1% | –
CATTGCCACTCCCATTCTTT (sugars e5 d10 e5, PS) | – | – | 44% | –

Sequence | target mRNA inhibition (HepG2, 2.5 µM) | target mRNA inhibition (HepG2, 10 µM) | target mRNA inhibition (HepG2, 0.12 µM) | target mRNA inhibition (HepG2, 20 µM)
TCTTGCCAGGCATGGAGCTC (sugars e5 d10 e5, PS) | – | – | 47% | –
CCACTGGAGCACTGAGATGA (sugars e2 d13 e5, PS) | – | – | 54% | –
GCTCTCATTTCTTATCTTCA (sugars e5 d10 e5, PS) | 82% and 80% | 95% and 93% | – | –
GTATCCAAAGATATAGTTCC (sugars e5 d10 e5, PS) | – | – | 8% | –
TTCCTGGTGGTCAGCAGGTT (sugars e5 d10 e5, PS) | – | – | 61% | –
TTGAAATCCAATGCACCTTG (sugars e5 d10 e5, PS) | 62% | 93% | – | –
GGAGCAGGCCTCGGGAAGCA (sugars e5 d10 e5, PS) | 38% | 85% | – | –
CTTAAGGCAAAGTAACATAC (sugars e5 d10 e5, PS) | 48% and 57% | 75% and 96% | – | –
CTCAGTCACTGACTCACAAC (sugars e5 d10 e5, PS) | 54% | 88% | – | –
ACCAGGGCCTCCATGTACAT (sugars e3 d14 e3, PS) | 27% and 24% | 63% and 50% | 84% | 26%
GAGATGACCTGTAGCTGCTT (sugars e5 d10 e5, PS) | – | – | 34% | –
CCAACTCCTCCCCTTGGCAG (sugars e5 d10 e5, PS) | – | – | 28% | –
ACCAACTCTCAGCTACTCCC (sugars e5 d10 e5, PS) | 95% | 85% | – | –
AGCTCTCAAGTCTTCCTCCT (sugars e5 d10 e5, PS) | 62% and 76% | 89% and 92% | – | –
GTAAGGGTATTCTGCTCATA (sugars e5 d10 e5, PS) | – | 86% and 95% | – | –
ATGGAGCTCAGAGACTCAGC (sugars e3 d14 e3, PS) | – | – | 71% | –
GAAAGTAGTCTCGAAAGTAG (sugars e5 d10 e5, PS) | – | – | 0% | –
TGGCCCTGTGCTCTGTGGGC (sugars e5 d10 e5, PS) | – | 35% and 33% | – | –
GAGCTCAGAGACTCAGCCGC (sugars e5 d10 e5, PS) | – | – | 81% | –
AGGAGTTCTCGAATATCCCT (sugars e5 d10 e5, PS) | 55% and 50% | 87% | – | –
GGGTTCTTGTCCTGGTCCCA (sugars e5 d10 e5, PS) | 79% and 66% | 90% | – | –
TGACCAGGAAGGCCACACCT (sugars e5 d10 e5, PS) | – | – | 15% | –

Sequence | target mRNA inhibition (HepG2, 2.5 µM) | target mRNA inhibition (HepG2, 10 µM) | target mRNA inhibition (HepG2, 0.12 µM) | target mRNA inhibition (HepG2, 20 µM)
ACCAGGGCCTCCATGTACAT (sugars e5 d10 e5, PS) | 30% | 32% and 50% | – | 48%
GACAGGACCCACTGGAGCAC (sugars e5 d10 e5, PS) | – | – | 44% and 69% | –
GAGCTTCACCAGGGCCTCCA (sugars e5 d10 e5, PS) | – | 74% and 79% | 52% | 83% and 88%
CCAAGTAAGCCTCGGTGTCC (sugars e5 d10 e5, PS) | – | – | 32% | –
CAGAAGAGCAAAGGCTTGCT (sugars e5 d10 e5, PS) | 50% | 94% | – | –
TCCACCTAGCTCATGGTGGC (sugars e5 d10 e5, PS) | – | – | 21% | –
CCTGGACAAGTCCTGCCCAT (sugars e3 d14 e3, PS) | – | – | 70% | –
ACAGCTGTGATGACTTCCCA (sugars e5 d10 e5, PS) | 88% | 77% | – | –
GGACAGGAGGGTCACACACA (sugars e5 d10 e5, PS) | – | – | 45% | –
GAGGCCAAGGACAGAGGTTC (sugars e5 d10 e5, PS) | 66% | 81% | – | –
GATCTCAGTCACTGACTCAC (sugars e5 d10 e5, PS) | 57% | 91% | – | –
AATGCCAATGCCTAGGTCAC (sugars e5 d10 e5, PS) | 72% | 90% | – | –
GCGATTCACTGAGGACCTCA (sugars e5 d10 e5, PS) | 74% | 86% | – | –
TGTGTGTCTTCACCAGCTGG (sugars e5 d10 e5, PS) | 28% | 73% | 55% | 94%
AAACCACTGTTGCTGAGCTC (sugars e5 d10 e5, PS) | 71% and 58% | 84% and 73% | – | –
TTCATCTTTCCAGATCCGGA (sugars e5 d10 e5, PS) | 71% | 92% | – | –
CTGCTTCTTGGGCATCTGCT (sugars e5 d10 e5, PS) | 76% and 73% | 88% and 80% | – | –
TTAAATAACCCACAGACACC (sugars e5 d10 e5, PS) | – | – | 0% | –
GTACAAGTTTCTCCACCTAT (sugars e5 d10 e5, PS) | 68% and 88% | 79% and 87% | – | –
AAAATCCATGTCAGAGAGGC (sugars e5 d10 e5, PS) | 64% | 90% | – | –
TTCACCTCCAGGACCTCAGT (sugars e5 d10 e5, PS) | – | – | 46% | –
AGAAGAGCAAAGGCTTGCTT (sugars e5 d10 e5, PS) | 74% and 72% | 94% and 93% | – | –

Sequence | target mRNA inhibition (HepG2, 2.5 µM) | target mRNA inhibition (HepG2, 10 µM) | target mRNA inhibition (HepG2, 0.12 µM) | target mRNA inhibition (HepG2, 20 µM)
TGGATGGGAAAGTAGTCTCG (sugars e5 d10 e5, PS) | – | – | 40% | –
AACCAACTCTCAGCTACTCC (sugars e5 d10 e5, PS) | 82% and 71% | 93% and 97% | – | –
ACTGGTCCTGCAGTTTCAGG (sugars e5 d10 e5, PS) | – | – | 55% | –
GCACTTGATCTGGGACCCAA (sugars e5 d10 e5, PS) | 69% and 73% | 95% and 92% | – | –
CACAGCGATGAGCCAGC (sugars e3 d10 e4, PS) | 50% and 31% | – | – | –
CCTCGATGTTACATTAAGGG (sugars e5 d10 e5, PS) | 82% and 88% | 86% and 90% | – | –
TCAGCCTAGAGGCCCTGGAC (sugars e5 d10 e5, PS) | – | – | 26% | –
TAAGGAAAACTTAGGCATGC (sugars e5 d10 e5, PS) | 75% | 69% | – | –
GACCTTGGGCAAGTTACCTA (sugars e5 d10 e5, PS) | 50% and 71% | 89% and 94% | – | –
GCCAGGTAAGGCCGTATGCC (sugars e3 d14 e3, PS) | – | – | 61% | –
TGGTCAGCAGGTTGTGTGTC (sugars e5 d10 e5, PS) | 19% | 72% | 55% and 43% | 83%
TAGGATGCTTAACTTCTGCT (sugars e5 d10 e5, PS) | 58% | 85% | – | –
ACCACTGTTGCTGAGCTCAT (sugars e5 d10 e5, PS) | 67% | 90% | – | –
TTCGGACCCACTGTGACCTC (sugars e2 d13 e5, PS) | – | – | 71% | –
GGCAAAGTAACATACCTGCT (sugars e5 d10 e5, PS) | 72% and 91% | 94% | – | –
AGCTCAGAGACTCAGCCGCA (sugars e3 d14 e3, PS) | – | – | 77% | –
TAGCCAGGTAAGGCCGTATG (sugars e2 d13 e5, PS) | – | – | 51% | –
TTACTCCACCTAGCTCATGG (sugars e5 d10 e5, PS) | – | – | 6% | –
TGGGAACTTCTTGCTCACTT (sugars e5 d10 e5, PS) | – | – | 43% | –
AGGGCCAGTTTCACAAAGCC (sugars e5 d10 e5, PS) | – | – | 33% | –
TCTCATGCTAGGTCCTGTGC (sugars e5 d10 e5, PS) | 89% and 74% | 90% and 88% | – | –
